Assay results as given in ChEMBL document CHEMBL3232845 (Bioorg Med Chem Lett, 2014).

Experiments:
[1] = molecular target: Fibroblast growth factor receptor 4 (Homo sapiens) (UniProt P22455); assay: Inhibition of human FGFR4 assessed as enzyme activity at 1 uM relative to control; design: scale not given: the % may be the effect or the level left
[2] = molecular target: Platelet-derived growth factor receptor beta (Homo sapiens) (UniProt P09619); assay: Inhibition of human PDGFRbeta assessed as enzyme activity at 1 uM relative to control; design: scale not given: the % may be the effect or the level left
[3] = molecular target: Glycogen synthase kinase-3 alpha (Homo sapiens) (UniProt P49840); assay: Inhibition of human GSK3alpha assessed as enzyme activity at 1 uM relative to control; design: scale not given: the % may be the effect or the level left
[4] = molecular target: SRSF protein kinase 1 (Homo sapiens) (UniProt Q96SB4); assay: Inhibition of human SRPK1 assessed as enzyme activity at 1 uM relative to control; design: scale not given: the % may be the effect or the level left
[5] = molecular target: Ephrin type-B receptor 4 (Homo sapiens) (UniProt P54760); assay: Inhibition of human EphB4 assessed as enzyme activity at 1 uM relative to control; design: scale not given: the % may be the effect or the level left
[6] = molecular target: Angiopoietin-1 receptor (Homo sapiens) (UniProt Q02763); assay: Inhibition of human Tie2 assessed as enzyme activity at 1 uM relative to control; design: scale not given: the % may be the effect or the level left
[7] = molecular target: Tyrosine-protein kinase Lyn (Homo sapiens) (UniProt P07948); assay: Inhibition of human Lyn assessed as enzyme activity at 1 uM relative to control; design: scale not given: the % may be the effect or the level left
[8] = molecular target: Epidermal growth factor receptor (Homo sapiens) (UniProt P00533); assay: Inhibition of human EGFR assessed as enzyme activity at 1 uM relative to control; design: scale not given: the % may be the effect or the level left
[9] = molecular target: Serine/threonine-protein kinase haspin (Homo sapiens) (UniProt Q8TF76); assay: Inhibition of human Haspin assessed as enzyme activity at 1 uM relative to control; design: scale not given: the % may be the effect or the level left
[10] = molecular target: Testis-specific serine/threonine-protein kinase 1 (Homo sapiens) (UniProt Q9BXA7); assay: Inhibition of human TSSK1 assessed as enzyme activity at 1 uM relative to control; design: scale not given: the % may be the effect or the level left
[11] = molecular target: Serine/threonine-protein kinase PLK3 (Homo sapiens) (UniProt Q9H4B4); assay: Inhibition of human Plk3 assessed as enzyme activity at 1 uM relative to control; design: scale not given: the % may be the effect or the level left
[12] = molecular target: Serine/threonine-protein kinase PLK2 (Homo sapiens) (UniProt Q9NYY3); assay: Inhibition of human Plk2 assessed as enzyme activity at 1 uM relative to control; design: scale not given: the % may be the effect or the level left
[13] = molecular target: Interleukin-1 receptor-associated kinase 4 (Homo sapiens) (UniProt Q9NWZ3); assay: Inhibition of human IRAK4 assessed as enzyme activity at 1 uM relative to control; design: scale not given: the % may be the effect or the level left
[14] = molecular target: Dual specificity mitogen-activated protein kinase kinase 4 (Mus musculus) (UniProt P47809); assay: Inhibition of mouse MKK4 assessed as enzyme activity at 1 uM relative to control; design: scale not given: the % may be the effect or the level left
[15] = molecular target: Serine/threonine-protein kinase MARK2 (Homo sapiens) (UniProt Q7KZI7); assay: Inhibition of human MARK2 assessed as enzyme activity at 1 uM relative to control; design: scale not given: the % may be the effect or the level left
[16] = molecular target: Focal adhesion kinase 1 (Homo sapiens) (UniProt Q05397); assay: Inhibition of human FAK assessed as enzyme activity at 1 uM relative to control; design: scale not given: the % may be the effect or the level left
[17] = molecular target: Rho-associated protein kinase 1 (Homo sapiens) (UniProt Q13464); assay: Inhibition of human ROCK-1 assessed as enzyme activity at 1 uM relative to control; design: scale not given: the % may be the effect or the level left
[18] = molecular target: Serine/threonine-protein kinase B-raf (Homo sapiens, UniProt P15056, V600E); assay: Inhibition of B-Raf V600E mutant in human Malme-3M cells assessed as basal ERK phosphorylation; format: cell-based
[19] = molecular target: Ephrin type-A receptor 3 (Homo sapiens) (UniProt P29320); assay: Inhibition of human EphA3 assessed as enzyme activity at 1 uM relative to control; design: scale not given: the % may be the effect or the level left
[20] = molecular target: Serine/threonine-protein kinase tousled-like 2 (Homo sapiens) (UniProt Q86UE8); assay: Inhibition of human TLK2 assessed as enzyme activity at 1 uM relative to control; design: scale not given: the % may be the effect or the level left
[21] = molecular target: Tyrosine-protein kinase Blk (Homo sapiens) (UniProt P51451); assay: Inhibition of human BLK assessed as enzyme activity at 1 uM relative to control; design: scale not given: the % may be the effect or the level left
[22] = molecular target: Ribosomal protein S6 kinase alpha-2 (Homo sapiens) (UniProt Q15349); assay: Inhibition of human Rsk3 assessed as enzyme activity at 1 uM relative to control; design: scale not given: the % may be the effect or the level left
[23] = molecular target: G protein-coupled receptor kinase 5 (Homo sapiens) (UniProt P34947); assay: Inhibition of human GRK5 assessed as enzyme activity at 1 uM relative to control; design: scale not given: the % may be the effect or the level left
[24] = molecular target: Serine/threonine-protein kinase PAK 5 (Homo sapiens) (UniProt Q9P286); assay: Inhibition of human PAK5 assessed as enzyme activity at 1 uM relative to control; design: scale not given: the % may be the effect or the level left
[25] = molecular target: Ribosomal protein S6 kinase alpha-5 (Homo sapiens) (UniProt O75582); assay: Inhibition of human MSK1 assessed as enzyme activity at 1 uM relative to control; design: scale not given: the % may be the effect or the level left
[26] = molecular target: Serine/threonine-protein kinase ULK3 (Homo sapiens) (UniProt Q6PHR2); assay: Inhibition of human ULK3 assessed as enzyme activity at 1 uM relative to control; design: scale not given: the % may be the effect or the level left
[27] = molecular target: Mitogen-activated protein kinase 12 (Homo sapiens) (UniProt P53778); assay: Inhibition of human p38gamma assessed as enzyme activity at 1 uM relative to control; design: scale not given: the % may be the effect or the level left
[28] = molecular target: Casein kinase I isoform gamma-1 (Homo sapiens) (UniProt Q9HCP0); assay: Inhibition of human CK1gamma1 assessed as enzyme activity at 1 uM relative to control; design: scale not given: the % may be the effect or the level left
[29] = molecular target: Serine/threonine-protein kinase PAK 6 (Homo sapiens) (UniProt Q9NQU5); assay: Inhibition of human PAK6 assessed as enzyme activity at 1 uM relative to control; design: scale not given: the % may be the effect or the level left
[30] = molecular target: RAF proto-oncogene serine/threonine-protein kinase (Homo sapiens) (UniProt P04049); assay: Inhibition of human c-RAF assessed as enzyme activity at 1 uM relative to control; design: scale not given: the % may be the effect or the level left
[31] = molecular target: Activin receptor type-1B (Homo sapiens) (UniProt P36896); assay: Inhibition of human ALK4 assessed as enzyme activity at 1 uM relative to control; design: scale not given: the % may be the effect or the level left
[32] = molecular target: Homeodomain-interacting protein kinase 3 (Homo sapiens) (UniProt Q9H422); assay: Inhibition of human HIPK3 assessed as enzyme activity at 1 uM relative to control; design: scale not given: the % may be the effect or the level left
[33] = molecular target: Calcium/calmodulin-dependent protein kinase type II subunit gamma (Homo sapiens) (UniProt Q13555); assay: Inhibition of human CAMK2g assessed as enzyme activity at 1 uM relative to control; design: scale not given: the % may be the effect or the level left
[34] = molecular target: Mitogen-activated protein kinase 8 (Homo sapiens) (UniProt P45983); assay: Inhibition of human JNK1alpha1 assessed as enzyme activity at 1 uM relative to control; design: scale not given: the % may be the effect or the level left
[35] = molecular target: Dual specificity protein kinase CLK3 (Homo sapiens) (UniProt P49761); assay: Inhibition of human CLK3 assessed as enzyme activity at 1 uM relative to control; design: scale not given: the % may be the effect or the level left
[36] = molecular target: Serine/threonine-protein kinase TAO1 (Homo sapiens) (UniProt Q7L7X3); assay: Inhibition of human TAO1 assessed as enzyme activity at 1 uM relative to control; design: scale not given: the % may be the effect or the level left
[37] = molecular target: Vascular endothelial growth factor receptor 2 (Homo sapiens) (UniProt P35968); assay: Inhibition of human KDR assessed as enzyme activity at 1 uM relative to control; design: scale not given: the % may be the effect or the level left
[38] = molecular target: PAS domain-containing serine/threonine-protein kinase (Homo sapiens) (UniProt Q96RG2); assay: Inhibition of human PASK assessed as enzyme activity at 1 uM relative to control; design: scale not given: the % may be the effect or the level left

Epidermal growth factor receptor (Homo sapiens), sequence (P00533 whole entry): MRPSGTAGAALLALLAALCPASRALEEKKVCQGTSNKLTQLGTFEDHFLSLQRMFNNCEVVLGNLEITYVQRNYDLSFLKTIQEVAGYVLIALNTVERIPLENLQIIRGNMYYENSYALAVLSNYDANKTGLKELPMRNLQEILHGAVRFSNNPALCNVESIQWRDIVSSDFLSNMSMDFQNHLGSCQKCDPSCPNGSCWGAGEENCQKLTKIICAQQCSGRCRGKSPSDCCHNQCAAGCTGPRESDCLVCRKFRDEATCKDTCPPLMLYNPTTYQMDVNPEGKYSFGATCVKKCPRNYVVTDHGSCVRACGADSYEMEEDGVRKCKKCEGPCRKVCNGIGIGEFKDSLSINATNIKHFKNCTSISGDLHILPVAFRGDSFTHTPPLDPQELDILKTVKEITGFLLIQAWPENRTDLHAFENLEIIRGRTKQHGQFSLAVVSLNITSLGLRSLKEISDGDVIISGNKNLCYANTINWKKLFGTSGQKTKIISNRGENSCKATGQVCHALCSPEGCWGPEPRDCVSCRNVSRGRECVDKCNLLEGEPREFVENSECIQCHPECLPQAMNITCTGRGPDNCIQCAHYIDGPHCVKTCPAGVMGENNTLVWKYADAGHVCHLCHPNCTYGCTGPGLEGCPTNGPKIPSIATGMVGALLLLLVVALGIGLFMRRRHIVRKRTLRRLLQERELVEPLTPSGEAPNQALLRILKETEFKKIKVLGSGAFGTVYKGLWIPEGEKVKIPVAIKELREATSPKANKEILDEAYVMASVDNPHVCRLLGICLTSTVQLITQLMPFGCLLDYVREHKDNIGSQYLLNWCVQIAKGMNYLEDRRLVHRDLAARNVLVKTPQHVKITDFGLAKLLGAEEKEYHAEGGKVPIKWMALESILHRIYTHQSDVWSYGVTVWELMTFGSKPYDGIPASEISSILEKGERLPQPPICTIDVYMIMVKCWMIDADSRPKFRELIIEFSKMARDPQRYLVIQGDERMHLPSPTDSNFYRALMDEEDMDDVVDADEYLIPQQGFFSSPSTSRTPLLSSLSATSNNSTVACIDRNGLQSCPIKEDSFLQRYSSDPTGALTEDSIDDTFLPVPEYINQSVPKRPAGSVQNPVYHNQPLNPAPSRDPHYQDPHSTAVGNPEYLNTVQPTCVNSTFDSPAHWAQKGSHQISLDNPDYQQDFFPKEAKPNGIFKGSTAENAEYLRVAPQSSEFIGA
Serine/threonine-protein kinase TAO1 (Homo sapiens), sequence (Q7L7X3 whole entry): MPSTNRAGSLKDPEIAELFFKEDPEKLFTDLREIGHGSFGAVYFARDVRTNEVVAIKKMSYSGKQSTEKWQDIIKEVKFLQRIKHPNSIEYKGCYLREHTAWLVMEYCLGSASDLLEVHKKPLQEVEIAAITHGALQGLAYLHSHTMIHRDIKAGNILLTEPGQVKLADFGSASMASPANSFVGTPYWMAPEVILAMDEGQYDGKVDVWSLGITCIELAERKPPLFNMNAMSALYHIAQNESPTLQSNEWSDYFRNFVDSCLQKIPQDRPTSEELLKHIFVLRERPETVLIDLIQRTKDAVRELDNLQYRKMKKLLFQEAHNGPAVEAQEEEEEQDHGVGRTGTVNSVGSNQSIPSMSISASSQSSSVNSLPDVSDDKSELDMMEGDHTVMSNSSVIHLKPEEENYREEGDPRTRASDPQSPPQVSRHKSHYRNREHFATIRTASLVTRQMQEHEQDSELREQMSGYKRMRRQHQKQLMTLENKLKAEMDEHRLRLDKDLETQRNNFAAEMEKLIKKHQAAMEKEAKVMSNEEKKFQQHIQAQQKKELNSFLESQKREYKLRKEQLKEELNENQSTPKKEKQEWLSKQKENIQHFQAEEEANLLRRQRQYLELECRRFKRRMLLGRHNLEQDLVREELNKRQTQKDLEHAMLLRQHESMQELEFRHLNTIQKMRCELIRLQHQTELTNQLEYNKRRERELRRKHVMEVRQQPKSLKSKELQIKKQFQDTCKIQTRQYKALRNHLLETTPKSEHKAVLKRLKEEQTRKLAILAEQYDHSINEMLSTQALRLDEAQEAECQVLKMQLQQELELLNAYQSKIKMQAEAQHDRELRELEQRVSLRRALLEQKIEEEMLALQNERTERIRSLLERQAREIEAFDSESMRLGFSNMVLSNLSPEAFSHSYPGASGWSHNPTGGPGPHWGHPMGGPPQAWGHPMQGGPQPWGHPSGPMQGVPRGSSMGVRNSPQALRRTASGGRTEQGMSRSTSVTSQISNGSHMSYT
Homeodomain-interacting protein kinase 3 (Homo sapiens), sequence (Q9H422 whole entry, looked up): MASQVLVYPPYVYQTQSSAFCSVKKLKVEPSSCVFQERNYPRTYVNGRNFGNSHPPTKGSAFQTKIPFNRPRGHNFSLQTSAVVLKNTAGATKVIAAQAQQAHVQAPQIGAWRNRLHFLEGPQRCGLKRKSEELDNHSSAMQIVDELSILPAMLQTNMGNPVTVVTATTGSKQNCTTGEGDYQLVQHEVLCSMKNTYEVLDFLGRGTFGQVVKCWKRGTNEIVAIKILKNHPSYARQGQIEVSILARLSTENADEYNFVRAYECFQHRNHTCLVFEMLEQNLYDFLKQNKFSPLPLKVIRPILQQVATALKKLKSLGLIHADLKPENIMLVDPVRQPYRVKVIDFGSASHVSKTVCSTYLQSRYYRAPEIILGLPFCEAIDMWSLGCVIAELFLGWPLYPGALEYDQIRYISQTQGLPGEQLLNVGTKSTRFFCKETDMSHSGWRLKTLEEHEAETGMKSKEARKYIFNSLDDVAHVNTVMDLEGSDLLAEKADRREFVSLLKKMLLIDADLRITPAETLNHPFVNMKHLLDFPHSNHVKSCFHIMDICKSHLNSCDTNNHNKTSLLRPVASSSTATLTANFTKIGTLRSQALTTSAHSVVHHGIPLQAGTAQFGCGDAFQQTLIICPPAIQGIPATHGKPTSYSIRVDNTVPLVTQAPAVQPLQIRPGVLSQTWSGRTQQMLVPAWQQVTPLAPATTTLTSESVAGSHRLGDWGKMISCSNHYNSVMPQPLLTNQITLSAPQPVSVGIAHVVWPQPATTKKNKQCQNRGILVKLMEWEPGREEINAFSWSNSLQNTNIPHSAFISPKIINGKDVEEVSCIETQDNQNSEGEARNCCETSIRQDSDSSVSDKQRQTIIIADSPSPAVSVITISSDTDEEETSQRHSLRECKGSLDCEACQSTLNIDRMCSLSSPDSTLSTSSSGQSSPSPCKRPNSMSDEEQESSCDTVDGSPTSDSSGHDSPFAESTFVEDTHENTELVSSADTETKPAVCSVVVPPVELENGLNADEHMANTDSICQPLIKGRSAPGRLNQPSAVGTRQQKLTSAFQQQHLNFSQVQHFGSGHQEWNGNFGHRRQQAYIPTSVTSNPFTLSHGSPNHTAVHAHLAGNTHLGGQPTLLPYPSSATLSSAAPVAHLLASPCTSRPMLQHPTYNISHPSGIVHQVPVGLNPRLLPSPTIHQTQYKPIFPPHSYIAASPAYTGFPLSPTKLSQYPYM
Interleukin-1 receptor-associated kinase 4 (Homo sapiens), sequence (Q9NWZ3 whole entry): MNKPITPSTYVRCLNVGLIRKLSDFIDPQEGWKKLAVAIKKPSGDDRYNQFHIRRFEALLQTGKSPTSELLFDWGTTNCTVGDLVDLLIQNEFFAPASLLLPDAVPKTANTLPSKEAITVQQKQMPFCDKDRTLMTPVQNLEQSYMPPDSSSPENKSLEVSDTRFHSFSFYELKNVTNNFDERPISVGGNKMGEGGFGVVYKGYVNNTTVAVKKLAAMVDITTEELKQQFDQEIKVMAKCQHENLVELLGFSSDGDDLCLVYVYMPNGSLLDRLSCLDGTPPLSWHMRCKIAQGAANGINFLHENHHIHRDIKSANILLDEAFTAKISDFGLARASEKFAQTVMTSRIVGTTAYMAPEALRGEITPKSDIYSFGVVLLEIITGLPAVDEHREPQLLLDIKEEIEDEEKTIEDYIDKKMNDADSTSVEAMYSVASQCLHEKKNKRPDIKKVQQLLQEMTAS
Serine/threonine-protein kinase PAK 6 (Homo sapiens), sequence (Q9NQU5 whole entry, looked up): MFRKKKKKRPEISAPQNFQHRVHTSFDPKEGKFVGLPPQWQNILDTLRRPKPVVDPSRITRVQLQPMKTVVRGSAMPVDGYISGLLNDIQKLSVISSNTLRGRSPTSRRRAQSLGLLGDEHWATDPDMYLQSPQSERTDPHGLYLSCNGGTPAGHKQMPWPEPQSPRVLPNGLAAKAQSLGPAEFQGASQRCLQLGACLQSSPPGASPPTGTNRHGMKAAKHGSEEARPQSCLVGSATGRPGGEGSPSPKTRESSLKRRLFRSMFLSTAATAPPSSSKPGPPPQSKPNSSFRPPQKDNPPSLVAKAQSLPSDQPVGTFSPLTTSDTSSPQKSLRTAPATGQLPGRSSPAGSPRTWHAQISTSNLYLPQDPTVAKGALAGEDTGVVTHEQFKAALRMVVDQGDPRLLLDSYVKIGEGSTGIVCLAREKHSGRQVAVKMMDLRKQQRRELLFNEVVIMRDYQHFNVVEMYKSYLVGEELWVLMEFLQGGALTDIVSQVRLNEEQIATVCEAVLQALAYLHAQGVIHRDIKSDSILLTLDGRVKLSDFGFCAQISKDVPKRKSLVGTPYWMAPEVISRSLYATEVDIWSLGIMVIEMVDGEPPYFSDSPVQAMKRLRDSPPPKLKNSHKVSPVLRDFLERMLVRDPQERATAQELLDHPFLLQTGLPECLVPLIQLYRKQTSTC
Mitogen-activated protein kinase 8 (Homo sapiens), sequence (P45983 whole entry): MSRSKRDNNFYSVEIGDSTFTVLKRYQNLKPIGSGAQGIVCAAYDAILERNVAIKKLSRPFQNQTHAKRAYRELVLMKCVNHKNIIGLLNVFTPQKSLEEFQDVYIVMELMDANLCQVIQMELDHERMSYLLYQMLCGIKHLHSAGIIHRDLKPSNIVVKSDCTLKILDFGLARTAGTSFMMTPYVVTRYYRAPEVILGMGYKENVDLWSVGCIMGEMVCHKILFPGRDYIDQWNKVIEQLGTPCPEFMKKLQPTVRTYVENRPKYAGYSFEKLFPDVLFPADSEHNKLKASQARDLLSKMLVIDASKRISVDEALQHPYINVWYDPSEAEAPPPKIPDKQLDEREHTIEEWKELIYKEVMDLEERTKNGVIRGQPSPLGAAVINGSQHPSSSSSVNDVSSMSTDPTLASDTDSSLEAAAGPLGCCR

Activity [1]: 134%
Activity [2]: 114%
Activity [3]: 122%
Activity [4]: 109%
Activity [5]: 104%
Activity [6]: 118%
Activity [7]: 98%
Activity [8]: 102%
Activity [9]: 99.5%
Activity [10]: 98%
Activity [11]: 99.5%
Activity [12]: 102%
Activity [13]: 106%
Activity [14]: 128%
Activity [15]: 100%
Activity [16]: 102%
Activity [17]: 108%
IC50 [18]: 6 nM
Activity [19]: 108%
Activity [20]: 104%
Activity [21]: 102%
Activity [22]: 87%
Activity [23]: 102%
Activity [24]: 99.5%
Activity [25]: 132%
Activity [26]: 92%
Activity [27]: 106%
Activity [28]: 104%
Activity [29]: 110%
Activity [30]: 1.5%
Activity [31]: 109%
Activity [32]: 106%
Activity [33]: 104%
Activity [34]: 102%
Activity [35]: 96%
Activity [36]: 88.5%
Activity [37]: 112%
Activity [38]: 110%
SMILES: CCCS(=O)(=O)Nc1cccc(Nc2ccc3ncn(C)c(=O)c3c2)c1C#N
